Test results published in ChEMBL document CHEMBL3046685, “Otebo bean (Phaseolus vulgaris) sensitivity to pre-emergence herbicides” (Crop Prot, 2006).

Columns and labels:
Phaseolus vulgaris [1] = test: Phytotoxicity in Phaseolus vulgaris (otebo bean) assessed as plant height at 75 g ai/ha applied as spray during pre-emergence treatment for 1 to 2 days measured 28 days post emergence (reference value: 29 cm); type: organism-based; details: in vivo, other
Phaseolus vulgaris [2] = test: Phytotoxicity in Phaseolus vulgaris (black bean) assessed as visual injury treated through soil application relative to control; type: organism-based; details: in vivo, other
Phaseolus vulgaris [3] = test: Phytotoxicity in Phaseolus vulgaris (cranberry bean) assessed as visual injury at 0.075 to 0.15 kg/ha applied during pre-emergence relative to control; type: organism-based; details: in vivo, other
Phaseolus vulgaris [4] = test: Increase in Phaseolus vulgaris (otebo bean) yield at 150 g ai/ha applied as spray during pre-emergence treatment for 1 to 2 days (reference value: 3.8 t/ha); type: functional
Phaseolus vulgaris [5] = test: Increase in Phaseolus vulgaris (otebo bean) yield at 75 g ai/ha applied as spray during pre-emergence treatment for 1 to 2 days (reference value: 3.8 t/ha); type: functional
Phaseolus vulgaris [6] = test: Phytotoxicity in Phaseolus vulgaris (black bean) assessed as reduction in crop yield treated through soil application relative to control; type: organism-based; details: in vivo, other
Phaseolus vulgaris [7] = test: Phytotoxicity in Phaseolus vulgaris (cranberry bean) assessed as visual injury at 0.075 to 0.15 kg/ha applied prior to planting relative to control; type: organism-based; details: in vivo, other
Phaseolus vulgaris [8] = test: Phytotoxicity in Phaseolus vulgaris (dry bean) assessed as visual injury relative to control; type: organism-based; details: in vivo
Phaseolus vulgaris [9] = test: Phytotoxicity in Phaseolus vulgaris (pinto bean) assessed as visual injury at 75 g ai/ha applied prior to planting relative to control; type: organism-based; details: in vivo, other
Phaseolus vulgaris [10] = test: Phytotoxicity in Phaseolus vulgaris (otebo bean) assessed as change in moisture content at 75 to 150 g ai/ha applied as spray during preemergence treatment for 1 to 2 days; type: organism-based; details: in vivo, other
Phaseolus vulgaris [11] = test: Phytotoxicity in Phaseolus vulgaris (otebo bean) assessed as shoot dry weight at 150 g ai/ha applied as spray during pre-emergence treatment for 1 to 2 days measured 42 days post emergence (reference value: 164 g); type: organism-based; details: in vivo, other
Phaseolus vulgaris [12] = test: Phytotoxicity in Phaseolus vulgaris (otebo bean) assessed as shoot dry weight at 75 g ai/ha applied as spray during pre-emergence treatment for 1 to 2 days measured 42 days post emergence (reference value: 164 g); type: organism-based; details: in vivo, other
Phaseolus vulgaris [13] = test: Phytotoxicity in Phaseolus vulgaris (otebo bean) assessed as plant height at 150 g ai/ha applied as spray during pre-emergence treatment for 1 to 2 days measured 28 days post emergence (reference value: 29 cm); type: organism-based; details: in vivo, other
Phaseolus vulgaris [14] = test: Phytotoxicity in Phaseolus vulgaris (otebo bean) assessed as visual injury at 150 g ai/ha applied as spray during pre-emergence treatment for 1 to 2 days measured 28 days post emergence relative to untreated control; type: organism-based; details: in vivo, other
Phaseolus vulgaris [15] = test: Phytotoxicity in Phaseolus vulgaris (otebo bean) assessed as visual injury at 75 g ai/ha applied as spray during pre-emergence treatment for 1 to 2 days measured 28 days post emergence relative to untreated control; type: organism-based; details: in vivo, other
Phaseolus vulgaris [16] = test: Phytotoxicity in Phaseolus vulgaris (otebo bean) assessed as visual injury at 150 g ai/ha applied as spray during pre-emergence treatment for 1 to 2 days measured 14 days post emergence relative to untreated control; type: organism-based; details: in vivo, other
Phaseolus vulgaris [17] = test: Phytotoxicity in Phaseolus vulgaris (otebo bean) assessed as visual injury at 75 g ai/ha applied as spray during pre-emergence treatment for 1 to 2 days measured 14 days post emergence relative to untreated control; type: organism-based; details: in vivo, other
Phaseolus vulgaris [18] = test: Phytotoxicity in Phaseolus vulgaris (otebo bean) assessed as visual injury at 150 g ai/ha applied as spray during pre-emergence treatment for 1 to 2 days measured 7 days post emergence relative to untreated control; type: organism-based; details: in vivo, other
Phaseolus vulgaris [19] = test: Phytotoxicity in Phaseolus vulgaris (otebo bean) assessed as visual injury at 75 g ai/ha applied as spray during pre-emergence treatment for 1 to 2 days measured 7 days post emergence relative to untreated control; type: organism-based; details: in vivo, other
Phaseolus vulgaris [20] = test: Phytotoxicity in Phaseolus vulgaris (otebo bean) assessed as plant height at 3200 g ai/ha applied as spray during pre-emergence treatment for 1 to 2 days measured 28 days post emergence (reference value: 29 cm); type: organism-based; details: in vivo, other
Phaseolus vulgaris [21] = test: Phytotoxicity in Phaseolus vulgaris (otebo bean) assessed as plant height at 1600 g ai/ha applied as spray during pre-emergence treatment for 1 to 2 days measured 28 days post emergence (reference value: 29 cm); type: organism-based; details: in vivo, other
Phaseolus vulgaris [22] = test: Phytotoxicity in Phaseolus vulgaris (otebo bean) assessed as shoot dry weight at 3200 g ai/ha applied as spray during pre-emergence treatment for 1 to 2 days measured 42 days post emergence (reference value: 164 g); type: organism-based; details: in vivo, other
Phaseolus vulgaris [23] = test: Increase in Phaseolus vulgaris (otebo bean) yield at 3200 g ai/ha applied as spray during pre-emergence treatment for 1 to 2 days (reference value: 3.8 t/ha); type: functional
Phaseolus vulgaris [24] = test: Increase in Phaseolus vulgaris (otebo bean) yield at 1600 g ai/ha applied as spray during pre-emergence treatment for 1 to 2 days (reference value: 3.8 t/ha); type: functional
Phaseolus vulgaris [25] = test: Phytotoxicity in Phaseolus vulgaris (otebo bean) assessed as change in moisture content at 1600 to 3200 g ai/ha applied as spray during preemergence treatment for 1 to 2 days; type: organism-based; details: in vivo, other
Phaseolus vulgaris [26] = test: Phytotoxicity in Phaseolus vulgaris (otebo bean) assessed as shoot dry weight at 1600 g ai/ha applied as spray during pre-emergence treatment for 1 to 2 days measured 42 days post emergence (reference value: 164 g); type: organism-based; details: in vivo, other
Phaseolus vulgaris [27] = test: Phytotoxicity in Phaseolus vulgaris (otebo bean) assessed as visual injury at 3200 g ai/ha applied as spray during pre-emergence treatment for 1 to 2 days measured 28 days post emergence relative to untreated control; type: organism-based; details: in vivo, other
Phaseolus vulgaris [28] = test: Phytotoxicity in Phaseolus vulgaris (otebo bean) assessed as visual injury at 1600 g ai/ha applied as spray during pre-emergence treatment for 1 to 2 days measured 28 days post emergence relative to untreated control; type: organism-based; details: in vivo, other
Phaseolus vulgaris [29] = test: Phytotoxicity in Phaseolus vulgaris (otebo bean) assessed as visual injury at 3200 g ai/ha applied as spray during pre-emergence treatment for 1 to 2 days measured 14 days post emergence relative to untreated control; type: organism-based; details: in vivo, other
Phaseolus vulgaris [30] = test: Phytotoxicity in Phaseolus vulgaris (otebo bean) assessed as visual injury at 1600 g ai/ha applied as spray during pre-emergence treatment for 1 to 2 days measured 14 days post emergence relative to untreated control; type: organism-based; details: in vivo, other
Phaseolus vulgaris [31] = test: Phytotoxicity in Phaseolus vulgaris (otebo bean) assessed as visual injury at 3200 g ai/ha applied as spray during pre-emergence treatment for 1 to 2 days measured 7 days post emergence relative to untreated control; type: organism-based; details: in vivo, other
Phaseolus vulgaris [32] = test: Phytotoxicity in Phaseolus vulgaris (otebo bean) assessed as visual injury at 1600 g ai/ha applied as spray during pre-emergence treatment for 1 to 2 days measured 7 days post emergence relative to untreated control; type: organism-based; details: in vivo, other

## CCc1cnc(C2=NC(C)(C(C)C)C(=O)N2)c(C(=O)O)c1 (configuration not stated) [IMAZETHAPYR]
Phaseolus vulgaris [1]
  Activity: 26 cm
Phaseolus vulgaris [2]
  Activity: <= 6%
Phaseolus vulgaris [3]
  Activity: < 5%
Phaseolus vulgaris [4]
  Crop_yield: 2.9 tons/ha
Phaseolus vulgaris [5]
  Crop_yield: 3.2 tons/ha
Phaseolus vulgaris [6]
  Crop_yield: 49%
Phaseolus vulgaris [7]
  Activity: < 5%
Phaseolus vulgaris [8]
  Activity: <= 20%
Phaseolus vulgaris [9]
  Activity: < 6%
Phaseolus vulgaris [10]
  Activity: Non-toxic
Phaseolus vulgaris [11]
  Activity: 95 g
Phaseolus vulgaris [12]
  Activity: 118 g
Phaseolus vulgaris [13]
  Activity: 22 cm
Phaseolus vulgaris [14]
  Activity: 16%
Phaseolus vulgaris [15]
  Activity: 6%
Phaseolus vulgaris [16]
  Activity: 1%
Phaseolus vulgaris [17]
  Activity: 0%
Phaseolus vulgaris [18]
  Activity: 0%
Phaseolus vulgaris [19]
  Activity: 0%

## CCc1cccc(C)c1N(C(=O)CCl)[C@@H](C)COC [S-METOLACHLOR]
Phaseolus vulgaris [20]
  Activity: 29 cm
Phaseolus vulgaris [21]
  Activity: 30 cm
Phaseolus vulgaris [22]
  Activity: 164 g
Phaseolus vulgaris [23]
  Crop_yield: 4.6 tons/ha
Phaseolus vulgaris [24]
  Crop_yield: 4.1 tons/ha
Phaseolus vulgaris [25]
  Activity: Non-toxic
Phaseolus vulgaris [26]
  Activity: 175 g
Phaseolus vulgaris [27]
  Activity: 0%
Phaseolus vulgaris [28]
  Activity: 0%
Phaseolus vulgaris [29]
  Activity: 2%
Phaseolus vulgaris [30]
  Activity: 1%
Phaseolus vulgaris [31]
  Activity: 4%
Phaseolus vulgaris [32]
  Activity: 2%
